In patent US9346815B2, “5-chloro-2-difluoromethoxyphenyl pyrazolopyrimidine compounds, compositions and methods of use thereof” (Genentech, Inc., priority 2014, dated 2016):
Read-outs that look alike come from different tables or passages of the source.

Key:
[1] = biological target: isolated recombinant JAK2 kinase domain (Homo sapiens (Human), UniProt O60674); test: JAK2 enzyme assay (Caliper LabChip, peptide phosphorylation); type: biochemical; conditions: 25 μM ATP
[2] = system: JAK1-dependent STAT6 phosphorylation downstream of IL-13 stimulation in TF-1 human erythroleukemia cells; test: JAK1 pathway assay in TF-1 cells (IL-13-pSTAT6, MSD); type: cell-based; conditions: read-out: IL13-pSTAT6 EC50_TF-1
Method in brief: (§1)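 Compound preincubation lasted 1 hr for BEAS-2B cells in complete growth medium and 30 min for GM-CSF-starved TF-1 cells in serum-free medium. EC50 values were determined.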

[3] = biological target: isolated recombinant JAK1 kinase domain (Homo sapiens (Human), UniProt P23458); test: JAK1 enzyme assay (Caliper LabChip, peptide phosphorylation); type: biochemical; conditions: isolated recombinant JAK1 kinase domain, 25 μM ATP
Sequence of isolated recombinant JAK1 kinase domain (P23458 875-1153): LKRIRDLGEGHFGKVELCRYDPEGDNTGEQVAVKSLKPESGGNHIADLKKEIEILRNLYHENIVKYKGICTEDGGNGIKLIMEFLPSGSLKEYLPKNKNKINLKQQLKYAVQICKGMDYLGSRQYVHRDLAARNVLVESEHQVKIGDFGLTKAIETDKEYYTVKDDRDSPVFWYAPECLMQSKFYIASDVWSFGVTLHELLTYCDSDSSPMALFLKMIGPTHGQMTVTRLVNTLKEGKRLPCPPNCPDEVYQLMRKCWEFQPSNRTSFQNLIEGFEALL

[4] = system: JAK1-dependent STAT6 phosphorylation downstream of IL-13 stimulation in BEAS-2B human bronchial epithelial cells; test: JAK1 pathway assay in BEAS-2B cells (IL-13-pSTAT6, MSD); type: cell-based; conditions: read-out: IL13-pSTAT6 EC50 (uM)_BEAS-2B
Method in brief: as §1

Sequence of isolated recombinant JAK2 kinase domain (O60674 849-1124): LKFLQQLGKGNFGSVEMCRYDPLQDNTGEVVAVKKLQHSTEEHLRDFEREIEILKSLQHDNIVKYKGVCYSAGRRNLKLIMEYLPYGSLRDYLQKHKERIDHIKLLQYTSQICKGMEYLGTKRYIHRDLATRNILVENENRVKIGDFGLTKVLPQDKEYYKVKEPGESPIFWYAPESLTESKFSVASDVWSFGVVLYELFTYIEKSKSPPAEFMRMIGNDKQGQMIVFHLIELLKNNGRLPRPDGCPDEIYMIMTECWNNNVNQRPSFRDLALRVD

Compound	Ki [1]	EC50 ([2]; Homo sapiens, TF-1, TF-1 cells)	Ki [3]	EC50 [4]	EC50 ([2]; TF-1 cells)
O=C(CNCCn1cc(NC(=O)c2cnn3cccnc23)c(-c2cc(Cl)ccc2OC(F)F)n1)OC1CCCC1 [Example 307, cyclopentyl 2-[2-[3-[5-chloro-2-(difluoromethoxy)phenyl]-4-(pyrazolo[1,5-a]pyrimidine-3-carbonylamino)pyrazol-1-yl]ethylamino]acetate]	0.59 nM	6.1 nM	1.45 nM	0.025 µM	–
CC(C)CN1C[C@@H]2CN(C(=O)Cn3cc(NC(=O)c4cnn5cccnc45)c(-c4cc(Cl)ccc4OC(F)F)n3)C[C@@H]2C1 [Example 28, N-[1-[2-[(3aS,6aR)-2-isobutyl-1,3,3a,4,6,6a-hexahydropyrrolo[3,4-c]pyrrol-5-yl]-2-oxo-ethyl]-3-[5-chloro-2-(difluoromethoxy)phenyl]pyrazol-4-yl]pyrazolo[1,5-a]pyrimidine-3-carboxamide]	0.84 nM	3.5 nM	0.82 nM	0.177 µM	–
O=C(Nc1cn(CC(=O)N2C[C@H]3CN(CC4CCC4)C[C@H]3C2)nc1-c1cc(Cl)ccc1OC(F)F)c1cnn2cccnc12 [Example 40, N-[1-[2-[(3aR,6aS)-2-(cyclobutylmethyl)-1,3,3a,4,6,6a-hexahydropyrrolo[3,4-c]pyrrol-5-yl]-2-oxo-ethyl]-3-[5-chloro-2-(difluoromethoxy)phenyl]pyrazol-4-yl]pyrazolo[1,5-a]pyrimidine-3-carboxamide]	0.61 nM	3.8 nM	0.65 nM	0.128 µM	–
CN(C)CC1CCN(c2nc(-c3cc(Cl)ccc3OC(F)F)c(NC(=O)c3cnn4cccnc34)s2)CC1 [Example 190, N-[4-[5-chloro-2-(difluoromethoxy)phenyl]-2-[4-[(dimethylamino)methyl]-1-piperidyl]thiazol-5-yl]pyrazolo[1,5-a]pyrimidine-3-carboxamide]	2.02 nM	14.6 nM	2.69 nM	0.0098 µM	–
CN1CCN(C(=O)Cn2cc(NC(=O)c3cnn4cccnc34)c(-c3cc(Cl)ccc3OC(F)F)n2)CC1 [Example 227, Pyrazolo[1,5-a]pyrimidine-3-carboxylic acid {3-(5-chloro-2-difluoromethoxyphenyl)-1-[2-(4-methylpiperazin-1-yl)-2-oxoethyl]-1H-pyrazol-4-yl}amide]	0.93 nM	3.6 nM	0.55 nM	0.0271 µM	–
O=C(Nc1cn(CC(=O)N2CCOCC2)nc1-c1cc(Cl)ccc1OC(F)F)c1cnn2cccnc12 [Example 288, N-[3-[5-chloro-2-(difluoromethoxy)phenyl]-1-(2-morpholino-2-oxo-ethyl)pyrazol-4-yl]pyrazolo[1,5-a]pyrimidine-3-carboxamide]	1.11 nM	2.8 nM	0.58 nM	0.0363 µM	–
O=C(Nc1cn(CC(=O)N2CCC(NC(c3ccccc3)C(F)(F)F)CC2)nc1-c1cc(Cl)ccc1OC(F)F)c1cnn2cccnc12 (centres unmarked) [Example 132, N-[3-[5-chloro-2-(difluoromethoxy)phenyl]-1-[2-oxo-2-[4-[(2,2,2-trifluoro-1-phenyl-ethyl)amino]-1-piperidyl]ethyl]pyrazol-4-yl]pyrazolo[1,5-a]pyrimidine-3-carboxamide]	1.27 nM	3.1 nM	0.57 nM	0.0973 µM	–
CCN(Cc1ccnc(C)c1)C(=O)Cn1cc(NC(=O)c2cnn3cccnc23)c(-c2cc(Cl)ccc2OC(F)F)n1 [Example 299, N-[3-[5-chloro-2-(difluoromethoxy)phenyl]-1-[2-[ethyl-[(2-methyl-4-pyridyl)methyl]amino]-2-oxo-ethyl]pyrazol-4-yl]pyrazolo[1,5-a]pyrimidine-3-carboxamide]	0.39 nM	4.1 nM	0.38 nM	0.0104 µM	–
CN1CC[C@H]2[C@@H](CCN2C(=O)Cn2cc(NC(=O)c3cnn4cccnc34)c(-c3cc(Cl)ccc3OC(F)F)n2)C1 [Example 62, N-[1-[2-[(3aS,7aS)-5-methyl-3,3a,4,6,7,7a-hexahydro-2H-pyrrolo[3,2-c]pyridin-1-yl]-2-oxo-ethyl]-3-[5-chloro-2-(difluoromethoxy)phenyl]pyrazol-4-yl]pyrazolo[1,5-a]pyrimidine-3-carboxamide]	2.68 nM	55.8 nM	2.07 nM	0.0892 µM	–
CC(C)CN1CCC2(CCN(C(=O)Cn3cc(NC(=O)c4cnn5cccnc45)c(-c4cc(Cl)ccc4OC(F)F)n3)CC2)C1 [Example 225, N-[3-[5-chloro-2-(difluoromethoxy)phenyl]-1-[2-(2-isobutyl-2,8-diazaspiro[4.5]decan-8-yl)-2-oxo-ethyl]pyrazol-4-yl]pyrazolo[1,5-a]pyrimidine-3-carboxamide]	1.29 nM	5 nM	0.39 nM	0.0423 µM	–
CN[C@@H]1CCC[C@H](n2cc(NC(=O)c3c(N)nn4cccnc34)c(-c3cc(Cl)ccc3OC(F)F)n2)C1 [Example 296, 2-amino-N-[3-[5-chloro-2-(difluoromethoxy)phenyl]-1-[(1S,3R)-3-(methylamino)cyclohexyl]pyrazol-4-yl]pyrazolo[1,5-a]pyrimidine-3-carboxamide]	0.21 nM	5.6 nM	0.26 nM	0.0283 µM	–
CN1CCN(C(=O)Cn2cc(NC(=O)c3cnn4cccnc34)c(-c3cc(Cl)ccc3OC(F)F)n2)C[C@H]1CO [Example 235, N-[3-[5-chloro-2-(difluoromethoxy)phenyl]-1-[2-[(3S)-3-(hydroxymethyl)-4-methyl-piperazin-1-yl]-2-oxo-ethyl]pyrazol-4-yl]pyrazolo[1,5-a]pyrimidine-3-carboxamide]	1.08 nM	21.3 nM	0.58 nM	0.114 µM	–
CN1CC[C@@H]2[C@@H](CCN2C(=O)Cn2cc(NC(=O)c3cnn4cccnc34)c(-c3cc(Cl)ccc3OC(F)F)n2)C1 [Example 45, N-[1-[2-[(3aS,7aR)-5-methyl-3,3a,4,6,7,7a-hexahydro-2H-pyrrolo[3,2-c]pyridin-1-yl]-2-oxo-ethyl]-3-[5-chloro-2-(difluoromethoxy)phenyl]pyrazol-4-yl]pyrazolo[1,5-a]pyrimidine-3-carboxamide]	1.78 nM	–	0.74 nM	0.0245 µM	7.1 nM
O=C(Nc1cn(CC(=O)N2CCC(CO)CC2)nc1-c1cc(Cl)ccc1OC(F)F)c1cnn2cccnc12 [Example 274, N-[3-[5-chloro-2-(difluoromethoxy)phenyl]-1-[2-[4-(hydroxymethyl)-1-piperidyl]-2-oxo-ethyl]pyrazol-4-yl]pyrazolo[1,5-a]pyrimidine-3-carboxamide]	0.91 nM	3.2 nM	0.34 nM	0.0131 µM	–
CN(CCCc1ccccc1)C1CCN(C(=O)Cn2cc(NC(=O)c3cnn4cccnc34)c(-c3cc(Cl)ccc3OC(F)F)n2)CC1 [Example 123, N-[3-[5-chloro-2-(difluoromethoxy)phenyl]-1-[2-[4-[methyl(3-phenylpropyl)amino]-1-piperidyl]-2-oxo-ethyl]pyrazol-4-yl]pyrazolo[1,5-a]pyrimidine-3-carboxamide]	1.63 nM	7.6 nM	2.23 nM	0.0487 µM	–
CN(CC1(C#N)CCCCC1)C1CCN(C(=O)C2CCN(c3nc(-c4cc(Cl)ccc4OC(F)F)c(NC(=O)c4cnn5cccnc45)s3)CC2)CC1 [Example 204, N-[4-[5-chloro-2-(difluoromethoxy)phenyl]-2-[4-[4-[(1-cyanocyclohexyl)methyl-methyl-amino]piperidine-1-carbonyl]-1-piperidyl]thiazol-5-yl]pyrazolo[1,5-a]pyrimidine-3-carboxamide]	1.41 nM	7.9 nM	2 nM	0.172 µM	–
CN(CC1(C)COC1)C1CCN(c2nc(-c3cc(Cl)ccc3OC(F)F)c(NC(=O)c3cnn4cccnc34)s2)CC1 [Example 200, N-[4-[5-chloro-2-(difluoromethoxy)phenyl]-2-[4-[methyl-[(3-methyloxetan-3-yl)methyl]amino]-1-piperidyl]thiazol-5-yl]pyrazolo[1,5-a]pyrimidine-3-carboxamide]	1.07 nM	5.9 nM	1.24 nM	0.0254 µM	–
CN[C@H]1C[C@@H](n2cc(NC(=O)c3c(N)nn4cccnc34)c(-c3cc(Cl)ccc3OC(F)F)n2)C1 [Example 298, 2-amino-N-[3-[5-chloro-2-(difluoromethoxy)phenyl]-1-[3-(methylamino)cyclobutyl]pyrazol-4-yl]pyrazolo[1,5-a]pyrimidine-3-carboxamide]	0.18 nM	4.4 nM	0.52 nM	0.0215 µM	–
CCN(Cc1cccnc1)C(=O)Cn1cc(NC(=O)c2cnn3cccnc23)c(-c2cc(Cl)ccc2OC(F)F)n1 [Example 301, N-[3-[5-chloro-2-(difluoromethoxy)phenyl]-1-[2-[ethyl(3-pyridylmethyl)amino]-2-oxo-ethyl]pyrazol-4-yl]pyrazolo[1,5-a]pyrimidine-3-carboxamide]	0.36 nM	3.4 nM	0.33 nM	0.0095 µM	–
O=C(Nc1cn(CC(=O)N2C[C@H]3CN(CC4CCC(F)(F)CC4)C[C@H]3C2)nc1-c1cc(Cl)ccc1OC(F)F)c1cnn2cccnc12 [Example 33, N-[1-[2-[(3aR,6aS)-2-[(4,4-difluoro-cyclohexyl)methyl]-1,3,3a,4,6,6a-hexahydropyrrolo[3,4-c]pyrrol-5-yl]-2-oxo-ethyl]-3-[5-chloro-2-(difluoromethoxy)phenyl]pyrazol-4-yl]pyrazolo[1,5-a]pyrimidine-3-carboxamide]	0.49 nM	6.2 nM	0.66 nM	0.0485 µM	–
